Patent US11560400B2, “Salts of diphosphate phosphoramidate of nucleosides as anticancer compounds” (NuCana plc, priority 2017, dated 2023)
Where a name gives a salt, the structure may show the parent alone. Read-outs that look alike come from different tables or passages of the source.

What was measured:
HT29 = experiment: CellTiterGlo cell viability assay, HT29; assay type: cell-based; conditions: HT29, 72 h; for EC50: read-out: Ab EC50; for inhibition at 198 µM: read-out: Top Inhibit
Experimental: (§1) A subset of compounds of the invention were assayed for their cytotoxic activity in an array of different solid tumours and haematological malignancies using the following assay.
(§2) In vitro viability assay were performed to assess the effects of compounds on cell viability in selected cell lines over 72 h using the CellTiterGlo (CTG, Promega-G7573) assay. The tests were performed in duplicates with treatment of compounds at 9 points, 3.16 folds titration in 96 well plates over ˜72 h. The compound starting concentrations were 198 μM. Cell viability assay using CellTiterGlo in 96-well plate were performed. Compound treatment 72 h, standard growth conditions, duplicates. Compounds were dissolved to 40 mM with thawed […]. Compounds were serially diluted at 3.16 fold in thawed DMSO, and warmed to 37° C. before being dissolved in media (2 μL+200 μL). After compounds were dissolved in media, media containing compounds were warmed to 37° C. in incubator and then compounds in media were added to cell plates (50 μL+50 μL) in duplicates. The compounds' final concentrations were from 198 μM to 19.8 nM. All compound solubilities were checked and recorded again, then the plates were transferred to CO2 tissue culture incubator immediately and incubated for 3 days. DMSO final concentration is 0.5%. The parent nucleoside in each case was tested as a comparator, as was an exemplary ProTide. The drugs of the ProTide class that were tested were as follows:
(§3) The following cell lines were tested and are referred to in the Table 1 below:
(§4) In Tables 2, 3 and 4, ‘Ab EC50’ refers to the absolute EC50 and ‘Top inhibit’ refers to the percentage inhibition achieved at the highest concentration tested.

HepG2 = experiment: CellTiterGlo cell viability assay, HepG2; assay type: cell-based; conditions: HepG2, 72 h; for EC50: read-out: Ab EC50; for inhibition at 198 µM: read-out: Top Inhibit
Experimental: as §1, §2, §3, §4

OVCAR 3 = experiment: CellTiterGlo cell viability assay, OVCAR 3; assay type: cell-based; conditions: for inhibition at 198 µM: OVCAR-3, 72 h, read-out: Top Inhibit; for EC50: read-out: Ab EC50
Experimental: as §1, §2, §3, §4

MCF-7 = experiment: CellTiterGlo cell viability assay, MCF-7; assay type: cell-based; conditions: MCF-7, 72 h, percentage inhibition at the highest concentration tested; for inhibition at 198 µM: Homo sapiens, MCF7, 72 h, read-out: Top Inhibit
Experimental: as §1, §2, §3, §4

CCRF-CEM = experiment: CellTiterGlo cell viability assay, CCRF-CEM; assay type: cell-based; conditions: 72 h; for EC50: read-out: Ab EC50; for inhibition at 198 µM: read-out: Top Inh
Experimental: as §1, §2, §3, §4

MOLT-4 = experiment: CellTiterGlo cell viability assay, MOLT-4; assay type: cell-based; conditions: MOLT-4, 72 h; for inhibition at 198 µM: read-out: Top Inh; for EC50: read-out: Ab EC50
Experimental: as §1, §2, §3, §4

K562 = experiment: CellTiterGlo cell viability assay, K562; assay type: cell-based; conditions: for inhibition at 198 µM: read-out: Top Inh; for EC50: read-out: Ab EC50
Experimental: as §1, §2, §3, §4

HL-60 = experiment: CellTiterGlo cell viability assay, HL-60; assay type: cell-based; conditions: HL-60, 72 h; for EC50: read-out: Ab EC50; for inhibition at 198 µM: read-out: Top Inh
Experimental: as §1, §2, §3, §4

RL = experiment: CellTiterGlo cell viability assay, RL; assay type: cell-based; conditions: 72 h; for EC50 / inhibition at 198 µM: Homo sapiens; for EC50: Table 4 classes, read-out: Ab EC50; for inhibition at 198 µM: read-out: Top Inh
Experimental: as §1, §2, §3, §4

RPMI-8226 = experiment: CellTiterGlo cell viability assay, RPMI-8226; assay type: cell-based, Human; conditions: RPMI-8226, 72 h; for EC50: read-out: Ab EC50; for inhibition at 198 µM: read-out: Top Inh
Experimental: as §1, §2, §3, §4

KG-1 = experiment: CellTiterGlo cell viability assay, KG-1; assay type: cell-based; conditions: KG-1, 72 h; for EC50: read-out: Ab EC50; for inhibition at 198 µM: read-out: Top Inhibit
Experimental: as §1, §2, §3, §4

[1] = Homo sapiens, HT-29, 72 h, Table 4 classes
[2] = Homo sapiens, HT-29, 72 h, percentage inhibition at the highest concentration tested
[3] = Homo sapiens, percentage inhibition at the highest concentration tested
[4] = Homo sapiens, OVCAR 3, 72 h, Table 4 classes
[5] = Homo sapiens, K562, 72 h, percentage inhibition at the highest concentration tested
[6] = Homo sapiens, K562, K 562, 72 h, Table 4 classes
[7] = percentage inhibition at the highest concentration tested

Row | Structure (SMILES) | EC50 (HT29; [1]) [nM] | inhibition at 198 µM (HT29; [2]) [%] | EC50 (HepG2; Homo sapiens, Table 4 classes) [nM] | inhibition at 198 µM (HepG2; [3]) [%] | inhibition at 198 µM (OVCAR 3; [3]) [%] | EC50 (OVCAR 3; [4]) [nM] | inhibition at 198 µM (MCF-7) [%] | EC50 (CCRF-CEM; Homo sapiens, Table 4 classes) [nM] | inhibition at 198 µM (CCRF-CEM; [3]) [%] | inhibition at 198 µM (MOLT-4; [3]) [%] | EC50 (MOLT-4; Homo sapiens, Table 4 classes) [nM] | inhibition at 198 µM (K562; [5]) [%] | EC50 (K562; [6]) [nM] | EC50 (HL-60; Homo sapiens, Table 4 classes) [nM] | inhibition at 198 µM (HL-60; [3]) [%] | inhibition at 198 µM (RL; [7]) [%] | EC50 (RPMI-8226; Homo sapiens, Table 4 classes) [nM] | inhibition at 198 µM (RPMI-8226; [3]) [%] | EC50 (KG-1; Homo sapiens, Table 4 classes) [nM] | inhibition at 198 µM (KG-1; [3]) [%] | further results
1 | CCOP(=O)(N[C@@H](C)C(=O)OCc1ccccc1)OP(=O)(O)OC[C@H]1O[C@@H](n2cnc3c(N)nc(Cl)nc32)[C@H](F)C1O (stereo partly drawn) [Example 20, 2-Chloro-9-(2′-Deoxy-2′-fluoro-β-D-arabinofuranosyl)adenine-5′-O-[1-ethyl(benzoxy-L-alaninyl)] Diphosphate Triethylammonium Salt] | 200 to 1000 | 69 | 200 to 1000 | 54 | 49 | > 10000 | 48 | < 200 | 99 | 89 | < 200 | 35 | > 10000 | < 200 | 96 | 69 | > 10000 | 80 | < 200 | 92 | EC50 (RL): 200 to 1000 nM
2 | CC(C)[C@H](NP(=O)(Oc1ccccc1)OP(=O)(O)OC[C@H]1O[C@@H](n2cnc3c(N)nc(Cl)nc32)[C@@H](F)[C@@H]1O)C(=O)OC1CCCCC1.CCN(CC)CC (stereo partly drawn) [Example 12, 2-Chloro-9-(2′-Deoxy-2′-fluoro-β-D-arabinofuranosyl)adenine-5′-O-[phenyl(cyclohexoxy-L-valinyl)] Diphosphate Triethylammonium Salt] |  |  |  |  |  |  |  |  |  |  |  |  |  |  |  |  |  |  |  |  | EC50 (HT29; absolute EC50, numeric values): 370 nM; Top Inhibit (HT29; [7]): 71%; EC50 (HepG2; absolute EC50, numeric values): 290 nM; Top Inhibit (HepG2; [7]): 54%; EC50 (OVCAR 3; OVCAR 3, 72 h, absolute EC50, numeric values): > 198000 nM; Top Inhibit (OVCAR 3; OVCAR 3, 72 h, percentage inhibition at the highest concentration tested): 41%; Top Inhibit (MCF-7): 44%; EC50 (CCRF-CEM; absolute EC50, numeric values): < 20 nM; Top Inh (CCRF-CEM; [7]): 99%; EC50 (MOLT-4; absolute EC50, numeric values): 40 nM; Top Inh (MOLT-4; [7]): 91%; EC50 (K562; K562, 72 h, absolute EC50, numeric values): > 198000 nM; Top Inh (K562; K562, 72 h, percentage inhibition at the highest concentration tested): 40%; EC50 (HL-60; absolute EC50, numeric values): 70 nM; Top Inh (HL-60; [7]): 96%; Top Inh (RL; [7]): 47%; EC50 (RPMI-8226; absolute EC50, numeric values): 39600 nM; Top Inh (RPMI-8226; [7]): 79%; EC50 (KG-1; absolute EC50, numeric values): 140 nM; Top Inhibit (KG-1; [7]): 91%
3 | CCOC(=O)[C@@H](NP(=O)(Oc1ccccc1)OP(=O)(O)OC[C@H]1O[C@@H](n2cnc3c(N)nc(Cl)nc32)C(F)[C@H]1O)C(C)CC (stereo partly drawn) [Example 25, 2-Chloro-9-(2′-Deoxy-2′-fluoro-β-D-arabinofuranosyl)adenine-5′-O-[l-phenyl(ethoxy-L-isoleucinyl)] Diphosphate Triethylammonium Salt] | 200 to 1000 | 67 |  | 49 | 24 | > 10000 | 43 | < 200 | 99 | 86 | < 200 | 33 | > 10000 | < 200 | 95 | 44 | 1000 to 5000 | 83 | < 200 | 91 | 
4 | Nc1nc(Cl)nc2c1ncn2[C@@H]1O[C@H](COP(=O)(O)OP(=O)(Oc2ccccc2)N2CCCC2C(=O)OCc2ccccc2)[C@H](O)C1F (stereo partly drawn) [Example 23, 2-Chloro-9-(2′-Deoxy-2′-fluoro-β-D-arabinofuranosyl)adenine-5′-O-[1-phenyl(benzoxy-L-prolinyl)] Diphosphate Triethylammonium Salt] | 200 to 1000 | 68 | 1000 to 5000 | 51 | 63 | > 10000 | 48 | < 200 | 99 | 89 | < 200 | 35 | > 10000 | < 200 | 96 | 39 | > 10000 | 85 | < 200 | 93 | 
5 | CC(C)C[C@H](NP(=O)(Oc1ccccc1)OP(=O)(O)OC[C@H]1O[C@@H](n2cnc3c(N)nc(Cl)nc32)[C@H](F)C1O)C(=O)OCc1ccccc1 (stereo partly drawn) [Example 21, 2-Chloro-9-(2′-Deoxy-2′-fluoro-β-D-arabinofuranosyl)adenine-5′-O-[1-phenyl(benzoxy-L-leucinyl)] Diphosphate Triethylammonium Salt] | 200 to 1000 | 69 | 200 to 1000 | 53 | 47 | > 10000 | 49 | < 200 | 99 | 90 | < 200 | 32 | > 10000 | < 200 | 96 | 70 | > 10000 | 81 | < 200 | 92 | EC50 (RL): 1000 to 5000 nM
6 | Nc1nc(Cl)nc2c1ncn2[C@@H]1O[C@H](COP(=O)(O)OP(=O)(N[C@@H](Cc2ccccc2)C(=O)OCc2ccccc2)Oc2ccccc2)C(O)[C@H]1F (stereo partly drawn) [Example 22, 2-Chloro-9-(2′-Deoxy-2′-fluoro-β-D-arabinofuranosyl)adenine-5′-O-[l-phenyl(benzoxy-L-phenylalaninyl)] Diphosphate Triethylammonium Salt] | 200 to 1000 | 69 |  | 47 | 73 | > 10000 | 50 | < 200 | 99 | 89 | < 200 | 62 | > 10000 | < 200 | 95 | 42 | 1000 to 5000 | 86 | < 200 | 92 | 
